A short description of one experiment: PubChem AID 623927. The conditions noted are these: Ricerca radioligand binding panel, 10 uM, % inhibition, stronger effect = higher value.
Experiment [1] concerns the target 5-hydroxytryptamine receptor 1A (Homo sapiens) (UniProt P08908). The experiment is described as follows: PubChem AID 623927. The conditions noted are these: Ricerca radioligand binding panel, 10 uM, % inhibition; serotonin 5-HT1A binding; stronger effect = higher value.
Experiment [2] concerns the target Adenosine receptor A1 (Homo sapiens) (UniProt P30542). The experiment is described as follows: PubChem AID 623927. The note with it: Ricerca radioligand binding panel, 10 uM, % inhibition; adenosine A1 binding; stronger effect = higher value.
Experiment [3] deals with Alpha-1A adrenergic receptor (Homo sapiens) (UniProt P35348). The experiment is described as follows: PubChem AID 623927. The note with it: Ricerca radioligand binding panel, 10 uM, % inhibition; adrenergic alpha1A binding; stronger effect = higher value.
The target of experiment [4] is Sigma non-opioid intracellular receptor 1 (Homo sapiens) (UniProt Q99720). As to the kind of experiment: PubChem AID 623927. The note with it: Ricerca radioligand binding panel, 10 uM, % inhibition; sigma 1 receptor binding; stronger effect = higher value.
Experiment [5] deals with Sodium-dependent dopamine transporter (Homo sapiens) (UniProt Q01959). The experiment is described as follows: PubChem AID 623927. The note with it: Ricerca radioligand binding panel, 10 uM, % inhibition; dopamine transporter DAT binding; stronger effect = higher value.
Experiment [6] addresses Sodium-dependent serotonin transporter (Homo sapiens) (UniProt P31645). The experiment is described as follows: PubChem AID 623927. The conditions noted are these: Ricerca radioligand binding panel, 10 uM, % inhibition; serotonin transporter SERT binding; stronger effect = higher value.
The target in experiment [7] is Voltage-gated inwardly rectifying potassium channel KCNH2 (Homo sapiens) (UniProt Q12809). The experiment is described as follows: PubChem AID 623927. The note with it: Ricerca radioligand binding panel, 10 uM, % inhibition; hERG channel binding; stronger effect = higher value.
Experiment [8] concerns norepinephrine transporter (NET) [Homo sapiens]. As to the kind of experiment: PubChem AID 623927. The note with it: Ricerca radioligand binding panel, 10 uM, % inhibition; stronger effect = higher value.

Usually inhibition stands for the relative decrease from the control value, in per cent. Take `O=C(Nc1cccc(Cl)c1)c1ccccn1`: the inhibition in “PubChem AID 623927” (NMDA agonist site binding) was determined as 15%; in “PubChem AID 623927” (NMDA phencyclidine site binding) it was 15%; in “PubChem AID 623927” (phorbol ester binding), 21%; in the experiment “PubChem AID 623927” (rolipram site (PDE4) binding) it was 17%; in the experiment “PubChem AID 623927” (sigma 2 receptor binding) it was 15%; in experiment [1], 16%. Further, the inhibition was 17% in experiment [2]; 16% in experiment [3]; 27% in experiment [4]; 31% in experiment [5]; 12% in experiment [6]; 0% in experiment [7]. In experiment [8], the inhibition of NET radioligand binding is 80%.

These data come from PubChem BioAssay AID623927 (Vanderbilt Specialized Chemistry Center, 2012).
